According to ChEMBL document CHEMBL3784922, “D-Amino acid oxidase inhibitors based on the 5-hydroxy-1,2,4-triazin-6(1H)-one scaffold” (Bioorg Med Chem Lett, 2016):

Legend:
[1] = Metabolic stability in mouse liver microsomes assessed as compound remaining after 60 mins by LC-MS/MS analysis in presence of NADPH; assay type: ADME; conditions: for Stability: microsomes, 1 h
[2] = Metabolic stability in mouse liver microsomes assessed as compound remaining after 60 mins by LC-MS/MS analysis in presence of UDPGA; assay type: ADME; conditions: for Stability: microsomes, 1 h
[3] = biological target: D-amino-acid oxidase (Homo sapiens, UniProt P14920); assay: Inhibition of recombinant human DAAO assessed as oxidative deamination of D-serine in presence of molecular oxygen and FAD after 20 mins
[4] = test system: Mus musculus; assay: In-vivo inhibition of DAAO in CD-1 mouse assessed as increase in D-serine AUC (0 to 6 hrs) at 30 mg/kg, po relative to control; assay type: functional
[5] = Tmax in CD-1 mouse plasma by HPLC-MS analysis; assay type: ADME, organism-based
[6] = test system: Mus musculus; assay: AUC (0 to 6 hrs) in CD-1 mouse plasma at 30 mg/kg, po by HPLC-MS analysis; assay type: ADME, organism-based; parameters: time < 6 hr, dose 30 mg/kg, route oral; conditions: in vivo
[7] = Plasma protein binding in CD-1 mouse at 30 mg/kg, po by ultrafiltration technique; assay type: ADME, organism-based; conditions: read-out: PPB (converted)
[8] = test system: Mus musculus; assay: In-vivo inhibition of DAAO in CD-1 mouse assessed as plasma clearance of D-serine at 30 mg/kg, po after 3 hrs; assay type: organism-based
[9] = test system: Mus musculus; assay: In-vivo inhibition of DAAO in CD-1 mouse assessed as plasma clearance of D-serine at 30 mg/kg, po upto 3 hrs; assay type: organism-based
[10] = species: Mus musculus; conditions: CD-1
[11] = liver microsomes, read-out: Stability

D-amino-acid oxidase, sequence (P14920 whole entry): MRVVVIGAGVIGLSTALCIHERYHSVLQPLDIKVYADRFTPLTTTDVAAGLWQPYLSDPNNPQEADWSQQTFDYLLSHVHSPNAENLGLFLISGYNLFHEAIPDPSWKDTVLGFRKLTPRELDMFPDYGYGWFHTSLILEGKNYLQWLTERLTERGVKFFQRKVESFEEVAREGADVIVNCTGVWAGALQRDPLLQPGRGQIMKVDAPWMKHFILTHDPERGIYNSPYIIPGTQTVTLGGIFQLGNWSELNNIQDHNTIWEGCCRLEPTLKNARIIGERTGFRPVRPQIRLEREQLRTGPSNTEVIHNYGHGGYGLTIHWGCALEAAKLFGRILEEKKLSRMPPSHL

Row | Compound | IC50 [3] | other results
1 | O=c1[nH]nc(SCc2ccc3cc(F)ccc3c2)nc1O |  | Stability [1]: 91%; Stability [2]: 95%
2 | CC(C)(C)c1ccc(CSc2n[nH]c(=O)c(O)n2)cc1 | 300 nM | 
3 | O=c1[nH]c(=O)n(Cc2cccc3ccccc23)nc1O |  | remaining at 1 h [1, 11]: > 99%; remaining at 1 h [2, 11]: > 99%
4 | O=c1[nH]nc(CCc2ccccc2)nc1O | 60 nM | fold change (FC) [4]: 1.7; Stability [1]: 79%; Stability [2]: 98%; Tmax [5]: 30 min; AUC [6]: 8070 ng·h/mL; fraction unbound [7]: 0.26; inhibition (INH) [8]: Not Active; inhibition (INH) [9]: Active; AUC [10]: 74200 ng·h/mL
5 | O=c1[nH]nc(SCc2ccc(Cl)c(Cl)c2)nc1O | 50 nM | 
6 | O=c1[nH]nc(SCc2ccc(-c3ccccc3)cc2)nc1O | 90 nM | 
7 | O=c1[nH]nc(SCc2ccc(Cl)cc2)nc1O | 30 nM | 
8 | O=c1[nH]nc(SCc2cccc(-c3ccccc3)c2)nc1O | 700 nM | 
9 | O=c1[nH]nc(SCc2noc3ccccc23)nc1O | 200 nM | 
10 | O=c1[nH]nc(SCc2ccc(I)cc2)nc1O | 50 nM | 
11 | O=c1[nH]nc(SCC2CCCCC2)nc1O | 600 nM | 
12 | O=c1[nH]nc(Cc2ccccc2)nc1O | 70 nM | 
13 | O=c1[nH]nc(SCc2ccccc2)nc1O | 100 nM | 
14 | O=c1[nH]nc(CCCc2ccccc2)nc1O | 4000 nM | 
15 | O=c1[nH]nc(SCCc2ccccc2)nc1O | 40000 nM | 
